Measured values from patent US8952024B2, “Herbicidal pyrimidone derivatives” (E I du Pont de Nemours and Company, priority 2009, dated 2015).

What was measured:
Format in all cases: in vivo
[1] = tested on: goosegrass (Eleusine indica); assay: Test B pre-/postemergence plant response
Procedure, shortened: (§1)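 Each species received compound formulated in non-phytotoxic solvent with surfactant, either at planting into a loam and sand blend or as a foliar spray once plants reached 2 to 18 cm in peat-based medium. Plants stayed in the greenhouse 13 to 15 days before visual evaluation against controls, scored 0 (no effect) to 100 (complete control).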

[2] = tested on: blackgrass (Alopecurus myosuroides); assay: Test B pre-/postemergence plant response
Procedure, shortened: as §1

[3] = tested on: green foxtail (Setaria viridis); assay: Test B pre-/postemergence plant response
Procedure, shortened: as §1

[4] = tested on: lambsquarters (Chenopodium album); assay: Test B pre-/postemergence plant response
Procedure, shortened: as §1

[5] = tested on: pigweed (Amaranthus retroflexus); assay: Test B pre-/postemergence plant response
Procedure, shortened: as §1

[6] = tested on: johnsongrass (Sorghum halepense); assay: Test B pre-/postemergence plant response
Procedure, shortened: as §1

[7] = tested on: Surinam grass (Brachiaria decumbens); assay: Test B pre-/postemergence plant response
Procedure, shortened: as §1

[8] = tested on: ragweed (common ragweed, Ambrosia elatior); assay: Test B pre-/postemergence plant response
Procedure, shortened: as §1

corn (Zea mays) = assay: Test B pre-/postemergence plant response
Procedure, shortened: as §1

[9] = tested on: giant foxtail (Setaria faberii); assay: Test B pre-/postemergence plant response
Procedure, shortened: as §1

wild oat (Avena fatua) = assay: Test B pre-/postemergence plant response
Procedure, shortened: as §1

[10] = tested on: umbrella sedge (Cyperus difformis); assay: Test B flooded paddy test; conditions: for Plant response rating, Sedge, Umbrella: Flood (flooded paddy test), 13 to 15 days
Procedure, shortened: (§2)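 Seedlings reaching 2 leaves are flooded 3 cm deep; test material is delivered to that water, which stays at the same depth. Plants remain in a greenhouse 13–15 days and are then scored by eye versus controls from 0 to 100.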

rice (Oryza sativa) = assay: Test B flooded paddy test; conditions: for Plant response rating, Rice: Flood (flooded paddy test), 13 to 15 days
Procedure, shortened: as §2

[11] = 31 g ai/ha, postemergence, scale 0 to 100, 0 is no effect, 100 is complete control
[12] = 250 g ai/ha, Preemergence, 0 to 100 scale
[13] = Postemergence, 62 g ai/ha, scale 0 (no effect) to 100 (complete control), 13 to 15 days
[14] = Postemergence, 125 g ai/ha, visual rating after 13 to 15 days, scale 0 (no effect) to 100 (complete control)
[15] = Postemergence, 250 g ai/ha, scale 0 to 100 (0 no effect, 100 complete control)
[16] = Preemergence, 31 g ai/ha, scale 0 to 100 (0 no effect, 100 complete control)
[17] = Preemergence, 62 g ai/ha, scale 0 to 100 (0 no effect, 100 complete control)
[18] = Preemergence, 125 g ai/ha, scale 0 to 100, 0 no effect, 100 complete control
[19] = 250 g ai/ha, flooded paddy test, visual rating on 0 to 100 scale (0 no effect, 100 complete control) after 13 to 15 days
[20] = 31 g ai/ha, scale of 0 to 100 where 0 is no effect and 100 is complete control
[21] = 62 g ai/ha, scale of 0 to 100 where 0 is no effect and 100 is complete control
[22] = 125 g ai/ha, scale 0 to 100, 0 is no effect, 100 is complete control

O=C1CCCC(O)=C1C(=O)c1cnc(-c2ccsc2)n(-c2ccccc2)c1=O [Compound 56]
100: Plant response rating, Goosegrass [1, 12] | Plant response rating, Foxtail, Green [3, 12] | Plant response rating, Foxtail, Green [3, 15] | Plant response rating, Lambsquarters [4, 14] | Plant response rating, Lambsquarters [4, 15] | Plant response rating, Pigweed [5, 14] | Plant response rating, Pigweed [5, 15] | Plant response rating, Pigweed [5, 17] | Plant response rating, Pigweed [5, 18] | Plant response rating, Johnsongrass [6, 15] | Plant response rating, Surinam Grass [7, 15]
65: Plant response rating, Goosegrass [1, 11] | Plant response rating, Ragweed [8, 17] | Plant response rating, Corn (corn (Zea mays); [13]) | Plant response rating, Corn (corn (Zea mays); [14])
55: Plant response rating, Johnsongrass [6, 11] | Plant response rating, Johnsongrass [6, 18] | Plant response rating, Surinam Grass [7, 16] | Plant response rating, Ragweed [8, 11] | Plant response rating, Ragweed [8, 13]
70: Plant response rating, Ragweed [8, 18] | Plant response rating, Corn (corn (Zea mays); [15])
98: Plant response rating, Foxtail, Green [3, 14] | Plant response rating, Lambsquarters [4, 11] | Plant response rating, Lambsquarters [4, 12] | Plant response rating, Lambsquarters [4, 13] | Plant response rating, Lambsquarters [4, 17] | Plant response rating, Lambsquarters [4, 18] | Plant response rating, Pigweed [5, 11] | Plant response rating, Pigweed [5, 13] | Plant response rating, Pigweed [5, 16] | Plant response rating, Surinam Grass [7, 18]
30: Plant response rating, Sedge, Umbrella [10, 20]
15: Plant response rating, Rice (rice (Oryza sativa); [22])
90: Plant response rating, Goosegrass [1, 15] | Plant response rating, Goosegrass [1, 16]
5: Plant response rating, Blackgrass [2, 12] | Plant response rating, Oat, Wild (wild oat (Avena fatua); [11])
40: Plant response rating, Foxtail, Giant [9, 17] | Plant response rating, Oat, Wild (wild oat (Avena fatua); [14]) | Plant response rating, Sedge, Umbrella [10, 21]
45: Plant response rating, Johnsongrass [6, 17] | Plant response rating, Corn (corn (Zea mays); [11]) | Plant response rating, Oat, Wild (wild oat (Avena fatua); [15])
60: Plant response rating, Sedge, Umbrella [10, 22]
20: Plant response rating, Blackgrass [2, 14] | Plant response rating, Blackgrass [2, 15] | Plant response rating, Foxtail, Green [3, 17] | Plant response rating, Foxtail, Green [3, 18] | Plant response rating, Ragweed [8, 16] | Plant response rating, Oat, Wild (wild oat (Avena fatua); [13]) | Plant response rating, Flood, Rice (rice (Oryza sativa); [19])
75: Plant response rating, Goosegrass [1, 13] | Plant response rating, Goosegrass [1, 14] | Plant response rating, Surinam Grass [7, 11] | Plant response rating, Ragweed [8, 14] | Plant response rating, Ragweed [8, 15] | Plant response rating, Foxtail, Giant [9, 11] | Plant response rating, Foxtail, Giant [9, 18] | Plant response rating, Flood, Sedge, Umbrella [10, 19]
10: Plant response rating, Blackgrass [2, 13] | Plant response rating, Johnsongrass [6, 16]
80: Plant response rating, Foxtail, Green [3, 11] | Plant response rating, Johnsongrass [6, 12] | Plant response rating, Johnsongrass [6, 13] | Plant response rating, Surinam Grass [7, 13] | Plant response rating, Foxtail, Giant [9, 12] | Plant response rating, Foxtail, Giant [9, 13]
85: Plant response rating, Foxtail, Green [3, 13] | Plant response rating, Johnsongrass [6, 14] | Plant response rating, Surinam Grass [7, 14] | Plant response rating, Foxtail, Giant [9, 14]
95: Plant response rating, Goosegrass [1, 17] | Plant response rating, Goosegrass [1, 18] | Plant response rating, Lambsquarters [4, 16] | Plant response rating, Surinam Grass [7, 17] | Plant response rating, Foxtail, Giant [9, 15]
0: Plant response rating, Blackgrass [2, 11] | Plant response rating, Blackgrass [2, 16] | Plant response rating, Blackgrass [2, 17] | Plant response rating, Blackgrass [2, 18] | Plant response rating, Foxtail, Green [3, 16] | Plant response rating, Corn (corn (Zea mays); [12]) | Plant response rating, Corn (corn (Zea mays); [16]) | Plant response rating, Corn (corn (Zea mays); [17]) | Plant response rating, Corn (corn (Zea mays); [18]) | Plant response rating, Foxtail, Giant [9, 16] | Plant response rating, Oat, Wild (wild oat (Avena fatua); [16]) | Plant response rating, Oat, Wild (wild oat (Avena fatua); [17]) | Plant response rating, Oat, Wild (wild oat (Avena fatua); [18]) | Plant response rating, Rice (rice (Oryza sativa); [20]) | Plant response rating, Rice (rice (Oryza sativa); [21])
